From PMC2772170 (Journal of medicinal chemistry, 2009)
Read-outs that look alike come from different tables or passages of the source.

Tests used:
[1] = ABTS oxidation; cited from earlier work
ex vivo worms in culture = experiment: Ex vivo parasite killing, visual examination of cultured worms; set-up: species or system Schistosoma
TGR [2] = target: T1, TGR (Schistosoma mansoni, UniProt Q962Y6); settings: cited from earlier work
T1 sequence (Q962Y6 1-598): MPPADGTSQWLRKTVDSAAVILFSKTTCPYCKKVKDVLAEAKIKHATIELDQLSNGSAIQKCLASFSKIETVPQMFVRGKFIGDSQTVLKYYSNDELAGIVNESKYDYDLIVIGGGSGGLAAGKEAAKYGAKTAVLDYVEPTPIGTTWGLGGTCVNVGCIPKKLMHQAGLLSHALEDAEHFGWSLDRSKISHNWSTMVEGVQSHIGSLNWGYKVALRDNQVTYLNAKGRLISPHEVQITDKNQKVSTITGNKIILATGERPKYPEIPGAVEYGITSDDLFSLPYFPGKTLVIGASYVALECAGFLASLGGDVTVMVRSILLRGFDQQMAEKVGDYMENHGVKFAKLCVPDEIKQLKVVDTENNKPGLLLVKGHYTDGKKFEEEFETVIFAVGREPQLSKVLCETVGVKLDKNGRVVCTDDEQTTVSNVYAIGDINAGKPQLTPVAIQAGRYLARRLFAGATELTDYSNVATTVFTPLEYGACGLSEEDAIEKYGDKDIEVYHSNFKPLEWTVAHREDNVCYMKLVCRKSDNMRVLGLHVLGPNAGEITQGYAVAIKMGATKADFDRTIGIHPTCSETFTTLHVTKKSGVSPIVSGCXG

[3] = target: T2, thioredoxin glutathione reductase (TGR) (Schistosoma mansoni, UniProt Q962Y6); type: biochemical
T2 sequence (Q962Y6 1-598): T1 sequence (Q962Y6 1-598)

TGR [4] = target: T1, TGR; type: biochemical; settings: with TGR; ABTS method, data in supporting information
[5] = NO release on reaction with cysteine, chemiluminescent assay; settings: for NO donation on reaction with cysteine (in words): chemiluminescent assay
Microsomal stability = settings: human liver microsomes, 60 minutes at 37 °C; for Microsomal stability, NADPH (+): with NADPH; for Microsomal stability, NADPH (−): without NADPH
Caco-2 permeability = settings: human
[6] = human, microsomes, 1 h
[7] = target: T2, thioredoxin glutathione reductase (TGR); settings: cited from earlier work
[8] = 10 μM compound, cultured worms, 4 hr
[9] = 10 μM compound, cultured worms, 24 hr
[10] = 10 μM compound, cultured worms, 48 hr

Row | Compound | Ex Vivo Parasite Killing 2 hr (ex vivo worms in culture; 10 μM compound, cultured worms) | Ex Vivo Parasite Killing 4 hr (ex vivo worms in culture; [8]) | Ex Vivo Parasite Killing 8 hr (ex vivo worms in culture; 10 μM compound, cultured worms) | Ex Vivo Parasite Killing 48 hr (ex vivo worms in culture; [10]) | Ex Vivo Parasite Killing 72 hr (ex vivo worms in culture; 10 μM compound, cultured worms) | further results
1 | O=C(c1cccs1)c1no[n+]([O-])c1C(=O)c1cccs1 [Analogue 3, bis(thiophen-2-ylmethanone)-furoxan] | n.e. | n.e. | n.e. | n.e. | n.e. | NO generation in the presence of cysteine [1]: capable of NO generation in the presence of cysteine; Ex Vivo Parasite Killing 16 hr (ex vivo worms in culture; 10 μM compound, cultured worms): n.e.; Ex Vivo Parasite Killing 24 hr (ex vivo worms in culture; [9]): n.e.; NO generation in the presence of TGR/NADPH (TGR [2]): not in the presence of TGR/NADPH
2 | N#Cc1nonc1-c1ccccc1 [Analogue 4] |  |  |  |  |  | TGR inhibition (in words) [3]: nor was either analogue active versus TGR; NO release / NO donating ability (in words) (TGR [4]): no appreciable NO release with TGR; Ex vivo worm killing (in words) (ex vivo worms in culture): nor was either analogue active versus TGR or an effective ex vivo worm killing agent
3 | N#Cc1no[n+]([O-])c1-c1ccccc1 [Analogue 5] |  |  |  |  |  | TGR inhibition (in words) [3]: nor was either analogue active versus TGR; NO release / NO donating ability (in words) (TGR [4]): no appreciable NO release with TGR; Ex vivo worm killing (in words) (ex vivo worms in culture): nor was either analogue active versus TGR or an effective ex vivo worm killing agent
4 | Cc1c(-c2ccccc2)no[n+]1[O-] [Analogue 6] |  |  |  |  |  | NO release / NO donating ability (in words) (TGR [4]): inactive as a NO donor; NO donation on reaction with cysteine (in words) [5]: nor was 6 capable of NO donation
5 | [O-][n+]1onc(-c2ccccc2)c1CO [Analogue 7] |  |  |  |  |  | NO release / NO donating ability (in words) (TGR [4]): only a weak NO donor
6 | O=Cc1c(-c2ccccc2)no[n+]1[O-] [Analogue 8] |  |  |  |  |  | NO release / NO donating ability (in words) (TGR [4]): only modest NO donating abilities
7 | O=C(O)c1c(-c2ccccc2)no[n+]1[O-] [Analogue 9] |  |  |  |  |  | NO release / NO donating ability (in words) (TGR [4]): only modest NO donating abilities
8 | N#Cc1c(-c2cccc([N+](=O)[O-])c2)no[n+]1[O-] [Analogue 11] | n.e. | n.e. | n.e. |  |  | Ex Vivo Parasite Killing 16 hr (ex vivo worms in culture; 10 μM compound, cultured worms): sluggish
9 | N#Cc1c(-c2cccc(C(F)(F)F)c2)no[n+]1[O-] [Analogue 12] | n.e. | n.e. |  | 100%D | 100%D | 
10 | N#Cc1c(-c2ccc(F)c(Br)c2)no[n+]1[O-] [Analogue 13] | n.e. | n.e. | curling |  | 100%D | Ex Vivo Parasite Killing 24 hr (ex vivo worms in culture; [9]): 50%D
11 | N#Cc1c(-c2cccc(Br)c2)no[n+]1[O-] [Analogue 14] | n.e. | n.e. |  | 100%D | 100%D | Ex Vivo Parasite Killing 24 hr (ex vivo worms in culture; [9]): 100%D
12 | N#Cc1c(-c2cccc(Cl)c2)no[n+]1[O-] [Analogue 15] | n.e. | sluggish |  |  | 100%D | 
13 | N#Cc1c(-c2ccc(Br)cc2)no[n+]1[O-] [Analogue 16] | n.e. | sluggish |  | 100%D | 100%D | Ex Vivo Parasite Killing 24 hr (ex vivo worms in culture; [9]): 100%D; Microsomal stability, NADPH (+) (Microsomal stability): 10 % remaining; Microsomal stability, NADPH (−) (Microsomal stability): 67 % remaining
14 | N#Cc1c(-c2ccc(Cl)cc2)no[n+]1[O-] [Analogue 17] | n.e. | n.e. | n.e. |  | 100%D | Ex Vivo Parasite Killing 16 hr (ex vivo worms in culture; 10 μM compound, cultured worms): sluggish
15 | N#Cc1c(-c2ccc(C(F)(F)F)cc2)no[n+]1[O-] [Analogue 18] | n.e. | n.e. |  |  | 100%D | 
16 | N#Cc1c(-c2cccc(O)c2)no[n+]1[O-] [Analogue 19] | n.e. | n.e. |  | n.e. | n.e. | Ex Vivo Parasite Killing 16 hr (ex vivo worms in culture; 10 μM compound, cultured worms): n.e.; Ex Vivo Parasite Killing 24 hr (ex vivo worms in culture; [9]): n.e.
17 | N#Cc1c(-c2ccc(F)cc2)no[n+]1[O-] [Analogue 20] | n.e. | n.e. |  | 100%D | 100%D | 
18 | COc1ccccc1-c1no[n+]([O-])c1C#N [Analogue 21] | n.e. | n.e. |  |  |  | 
19 | COc1cc(-c2no[n+]([O-])c2C#N)cc(OC)c1OC [Analogue 22] | n.e. | n.e. |  |  |  | Ex Vivo Parasite Killing 16 hr (ex vivo worms in culture; 10 μM compound, cultured worms): sluggish
20 | COc1cccc(-c2no[n+]([O-])c2C#N)c1 [Analogue 23] | n.e. | n.e. | n.e. |  |  | Ex Vivo Parasite Killing 16 hr (ex vivo worms in culture; 10 μM compound, cultured worms): n.e.
21 | COc1ccc(-c2no[n+]([O-])c2C#N)cc1 [Analogue 24] | n.e. | n.e. | n.e. |  | 100%D | 
22 | Cc1ccc(-c2no[n+]([O-])c2C#N)cc1 [Analogue 25] | n.e. | n.e. | n.e. |  |  | 
23 | N#Cc1c(-c2ccc(-c3ccccc3)cc2)no[n+]1[O-] [Analogue 26] | n.e. | n.e. | sluggish |  |  | Ex Vivo Parasite Killing 16 hr (ex vivo worms in culture; 10 μM compound, cultured worms): sluggish; Ex Vivo Parasite Killing 24 hr (ex vivo worms in culture; [9]): 20%D
24 | N#Cc1c(-c2ccc(O)cc2)no[n+]1[O-] [Analogue 27] | n.e. | n.e. | sluggish |  | 100%D | 
25 | N#Cc1c(-c2ccco2)no[n+]1[O-] [Analogue 28] | n.e. | n.e. |  | 100%D | 100%D | NO release / NO donating ability (in words) (TGR [4]): good NO release profiles
26 | N#Cc1c(-c2cccs2)no[n+]1[O-] [Analogue 29] | n.e. | n.e. |  | 100%D | 100%D | NO release / NO donating ability (in words) (TGR [4]): good NO release profiles; Papp A→B (Caco-2 permeability): 8.4 ×10⁻⁶ cm/s; Microsomal stability, NADPH (+) (Microsomal stability): 1 % remaining; Microsomal stability, NADPH (−) (Microsomal stability): 64 % remaining
27 | N#Cc1c(C(=O)c2cccs2)no[n+]1[O-] [Analogue 30] | n.e. | n.e. | n.e. | n.e. | n.e. | NO donation on reaction with cysteine (in words) [5]: capable of releasing NO; Ex Vivo Parasite Killing 16 hr (ex vivo worms in culture; 10 μM compound, cultured worms): n.e.; Ex Vivo Parasite Killing 24 hr (ex vivo worms in culture; [9]): n.e.
28 | N#Cc1c(-c2cccc(-c3no[n+]([O-])c3C#N)c2)no[n+]1[O-] [Analogue 31] |  |  |  |  |  | Ex Vivo Parasite Killing 4 hr (ex vivo worms in culture): curling; Ex Vivo Parasite Killing 24 hr (ex vivo worms in culture): 100%D; Ex Vivo Parasite Killing 48 hr (ex vivo worms in culture): 100%D
29 | N#Cc1c(-c2cc(F)cc(-c3no[n+]([O-])c3C#N)c2)no[n+]1[O-] [Analogue 33] |  |  |  |  |  | NO equivalents produced per equivalent of reagent [5]: 1.55 molar equivalents; Microsomal stability, NADPH (+) [6]: 20/51 % remaining; Microsomal stability, NADPH (−) [6]: 20/51 % remaining; Ex Vivo Parasite Killing 48 hr (ex vivo worms in culture): 100%D
30 | CC(=O)OC[C@H]1O[C@@H]([S-])[C@H](OC(C)=O)[C@@H](OC(C)=O)[C@@H]1OC(C)=O.CCP(CC)CC.[Au+] [auranofin] |  |  |  |  |  | TGR inhibition (in words) [7]: potent inhibitor of TGR
